Results reported in US5185338A, “Medicament for treating cerebral insufficiency diseases, novel 2-(1-piperazinyl)-4-phenylcycloalkanopyrimidine derivatives, and process for the production thereof” (Dainippon Pharmaceutical Co., Ltd., priority 1989, dated 1993).

How the values were obtained:
Assay type in all cases: in vivo, mice (Std-ddY strain)
[1] = test system: scopolamine-induced hypermotility; experiment: Antagonistic effect on scopolamine-induced hypermotility; details: Mus musculus, po, orally, scopolamine hydrobromide 1 mg/kg i.p., complete antagonism to motility level of non-dosed animals=100%, read-out: Inhibitory ratio (% antagonism of scopolamine-induced hypermotility)
Method: Antagonistic effect on scopolamine-induced hypermotility:
A test compound was orally administered to each mouse, and 90 minutes after the administration, each one test animal was placed within a test cage (25×35×30 cm). After 30 minutes, scopolamine hydrobromide (1 mg/kg) was intraperitoneally administered to the mice and then the motility was measured with Animex activity meter for 30 minutes. The effect of test compounds was expressed as % antagonism (complete antagonism to the motility level of non-dosed animals=100%).

[2] = test system: cycloheximide-induced amnesia of passive avoidance response; experiment: Improving effect on cycloheximide-induced amnesia of passive avoidance response; details: cycloheximide 60 mg/kg s.c., retention trial at 24 hours, non-dosed animals=100%
Description: Improving effect on cycloheximide-induced amnesia of passive avoidance response:
Anti-amnesic effect of the test compounds was examined using mice given cycloheximide which is a known amnesia-inducing agent.
A group of 15-20 male mice (Std-ddY strain, 27-33 g) was subjected to training and retention trials for a passive avoidance task in a step-down apparatus (30×30×50 cm) with a grid floor and a wooden platform (4×4×4 cm) in a center of the floor. In the training trial, each mouse was first placed on the platform, and when the mouse stepped down on the grid floor, an electric shock (1 Hz, 0.5 sec, 60 VDC) was delivered to the feet for 15 seconds. Immediately after the training trial, cycloheximide (60 mg/kg, s.c.) and a test compound (i.p.) were administered. The retention trial was carried out 24 hours thereafter, and the time from placing again each mouse on the platform until stepping down on the grid floor (step-down latency) was measured. The step-down latency in the retention trial was markedly shortened by treatment of cycloheximide (amnesia). The effect of test compounds was assessed by % improvement (complete improvement to the latency level of non-dosed animals=100%).

[3] = test system: scopolamine-induced deficit of spontaneous alternation behavior; experiment: Improving effect on scopolamine-induced deficit of spontaneous alternation behavior (T-maze); details: scopolamine hydrobromide 1 mg/kg, non-dosed mice=100%
Description: Improving effect on scopolamine-induced deficit of spontaneous alternation behavior:
A group of 15-25 male mice (Std-ddY strain, 22-28 g) was used for evaluating effect of the test compounds on scopolamine-induced deficit of spontaneous alternation in a T-maze, which is a known animal model of memory impairment due to hypofunction of the cholinergic nervous system. The T-maze used consists of a stem and two arms which are 25 cm long, 5 cm wide and 10 cm high. The first 10 cm of the stem and last 10 cm of each arm are divided by sliding doors into start and goal boxes.
A test compound and scopolamine hydrobromide (1 mg/kg) were intraperitoneally administered to each mouse, and after 30 minutes a test of spontaneous alternation task in the T-maze was continuously repeated for 8 trials. Commonly, naive mice alternate each (right and left) goal box in turn, but scopolamine-treated animals tend to enter the same goal box repeatedly. The effect of the test compounds was expressed as % improvement (complete improvement to the alternation level of non-dosed mice=100%).

[4] = test system: brain serotonin metabolite, 5-hydroxyindole-3-acetic acid (5-HIAA); experiment: Increasing effect on concentration of brain serotonin metabolite (5-HIAA); details: Mus musculus, 2 h, two hours after treatment, 5-HIAA level of non-dosed animals=100%
Description: Increasing effect on concentration of brain serotonin metabolite:
A group of 5 male mice (Std-ddY strain, 25-30 g) was used for examining effect of the test compounds on concentration of a brain serotonin metabolite, 5-hydroxyindole-3-acetic acid (5-HIAA).
Mice were killed by decapitation two hours after the treatment with the test compounds. Brains were quickly taken out, homogenized in 1N formic acid-acetone solution, and centrifuged in a refrigerated ultracentrifuge. The supernatant was evaporated by blowing with N2 gas, and then, the residue was again dissolved in 0.01N acetic acid, and served for determining 5-HIAA concentration by high performance liquid chromatography with electrochemical detection. The effect of the test compounds on 5-HIAA concentration was shown as % of control (5-HIAA level of non-dosed animals=100%).

[5] = test system: reserpine-induced hypothermia; experiment: Anti-reserpine effect (reserpine-induced hypothermia); details: 100 mg/kg orally; reserpine 5 mg/kg s.c.; rectal temperature at 4 hours; complete inhibition=100%
Method: A group of 5 male mice (Std-ddY strain, 22-25 g) was used for examining the antagonistic effect of the test compounds on reserpine-induced hypothermia, which is known as a screening method for the antidepressant drug.
Reserpine (5 mg/kg) was subcutaneously administered to the mice and further a test compound was orally administered thereto. Four hours after the administration, rectal temperature of the mice was measured. The effect of the test compounds was estimated by % inhibition (complete inhibition to the hypothermia by reserpine in non-dosed animals=100%).

Row | SMILES | inhibition in vivo at 30 mg/kg [1] [%] | also measured
1 | c1ccc(-c2nc(N3CCNCC3)nc3c2CCC3)cc1 [Ex. 3, 2-(1-Piperazinyl)-4-phenyl-6,7-dihydro-5H-cyclopentapyrimidine] | – | inhibition in vivo at 3 mg/kg [1]: 68%; Improvement of cycloheximide-induced amnesia (step-down latency) ([2]; 0.5 mg/kg i.p.): 34.4%; Improvement of cycloheximide-induced amnesia (step-down latency) ([2]; 10.0 mg/kg i.p.): 52.1%; Improvement of scopolamine-induced deficit of spontaneous alternation ([3]; 2.0 mg/kg i.p.): 45.8%
2 | CN1CCN(c2nc3c(c(-c4ccc(F)cc4)n2)CCC3)CC1 [Ex. 4] | – | response vs control in vivo at 100 mg/kg [4]: 122%; inhibition in vivo at 10 mg/kg [1]: 66%
3 | CCN1CCN(c2nc3c(c(-c4ccc(F)cc4)n2)CCC3)CC1 [Ex. 5] | 81.4 | response vs control in vivo at 100 mg/kg [4]: 161%
4 | OCCN1CCN(c2nc3c(c(-c4ccc(F)cc4)n2)CCC3)CC1 [Ex. 6] | 64.5 | response vs control in vivo at 100 mg/kg [4]: 119%
5 | CCN1CCN(c2nc3c(c(-c4ccc(F)cc4)n2)CCCCC3)CC1 [Ex. 8] | – | inhibition in vivo at 10 mg/kg [1]: 80%
6 | Fc1ccc(-c2nc(N3CCN(C4CCCC4)CC3)nc3c2CCC3)cc1 [Ex. 12] | 80.9 | –
7 | CCCN1CCN(c2nc3c(c(-c4ccc(F)cc4)n2)CCC3)CC1 [Ex. 13, 2-(4-n-propyl-1-piperazinyl)-4-(4-fluorophenyl)-6,7-dihydro-5H-cyclopentapyrimidine] | 97.6 | –
8 | Fc1ccc(-c2nc(N3CCNCC3)nc3c2CCCC3)cc1 [Ex. 14, 2-(1-piperazinyl)-4-(4-fluoro-phenyl)-5,6,7,8-tetrahydroquinazoline] | – | response vs control in vivo at 100 mg/kg [4]: 154%; Inhibitory ratio (% inhibition of reserpine-induced hypothermia) [5]: 100%; inhibition in vivo at 3 mg/kg [1]: 55.2%; Improvement of cycloheximide-induced amnesia (step-down latency) ([2]; 2.0 mg/kg i.p.): 52.5%; Improvement of scopolamine-induced deficit of spontaneous alternation ([3]; 1.0 mg/kg i.p.): 40.7%
9 | CCN1CCN(c2nc3c(c(-c4ccccc4)n2)CCCCC3)CC1 [Ex. 16] | 54.2 | –
10 | CCN1CCN(c2nc3c(c(-c4ccccc4)n2)CCCCCC3)CC1 [Ex. 17] | 72.5 | –
11 | c1ccc(CN2CCN(c3nc4c(c(-c5ccccc5)n3)CCC4)CC2)cc1 [Ex. 18] | 54.4 | –
12 | Fc1ccc(-c2nc(N3CCN(Cc4ccccc4)CC3)nc3c2CCC3)cc1 [Ex. 19] | – | inhibition in vivo at 3 mg/kg [1]: 64.4%
13 | Fc1ccc(-c2nc(N3CCN(c4ccccc4)CC3)nc3c2CCC3)cc1 [Ex. 20] | 35.2 | –
14 | CN1CCN(c2nc3c(c(-c4cccc(F)c4)n2)CCC3)CC1 [Ex. 21] | 70.5 | –
15 | COc1ccc(-c2nc(N3CCN(C)CC3)nc3c2CCC3)cc1 [Ex. 23] | 52.4 | –
16 | CCN1CCN(c2nc3c(c(-c4ccc(OC)cc4)n2)CCC3)CC1 [Ex. 24] | 72.5 | –
17 | CN1CCN(c2nc3c(c(-c4ccccc4)n2)CCCC3)CC1 [Ex. 25] | – | response vs control in vivo at 100 mg/kg [4]: 142%; Inhibitory ratio (% inhibition of reserpine-induced hypothermia) [5]: 63%; inhibition in vivo at 10 mg/kg [1]: 67.2%

Row | SMILES | inhibition in vivo at 30 mg/kg [1] [%] | also measured
18 | CCN1CCN(c2nc3c(c(-c4ccccc4)n2)CCCC3)CC1 [Ex. 26] | 59.6 | Inhibitory ratio (% inhibition of reserpine-induced hypothermia) [5]: 100%
19 | OCCN1CCN(c2nc3c(c(-c4ccccc4)n2)CCCC3)CC1 [Ex. 27] | 42 | response vs control in vivo at 100 mg/kg [4]: 131%; Inhibitory ratio (% inhibition of reserpine-induced hypothermia) [5]: 46%
20 | CCN1CCN(c2nc3c(c(-c4ccc(F)cc4)n2)CCCC3)CC1 [Ex. 29] | 59.1 | response vs control in vivo at 100 mg/kg [4]: 149%
21 | OCCN1CCN(c2nc3c(c(-c4ccc(F)cc4)n2)CCCC3)CC1 [Ex. 30] | 75.7 | response vs control in vivo at 100 mg/kg [4]: 137%; Inhibitory ratio (% inhibition of reserpine-induced hypothermia) [5]: 67%
22 | Fc1ccc(-c2nc(N3CCN(Cc4ccccc4)CC3)nc3c2CCCC3)cc1 [Ex. 31] | – | inhibition in vivo at 10 mg/kg [1]: 61.1%
23 | CN1CCN(c2nc3c(c(-c4ccc(Cl)cc4)n2)CCCC3)CC1 [Ex. 32] | 62.6 | –
24 | CCN1CCN(c2nc3c(c(-c4ccc(Cl)cc4)n2)CCCC3)CC1 [Ex. 33] | 42.3 | –
25 | OCCN1CCN(c2nc3c(c(-c4ccc(Cl)cc4)n2)CCCC3)CC1 [Ex. 34] | 50.2 | –
26 | c1ccc(CN2CCN(c3nc4c(c(-c5ccccc5)n3)CCCCC4)CC2)cc1 [Ex. 37] | 62.9 | –
27 | Fc1ccc(-c2nc(N3CCN(Cc4ccccc4)CC3)nc3c2CCCCC3)cc1 [Ex. 38] | 81.6 | –
28 | Fc1ccc(-c2nc(N3CCN(c4ccccn4)CC3)nc3c2CCC3)cc1 [Ex. 39] | 55.6 | –
29 | CC1CCc2nc(N3CCNCC3)nc(-c3ccc(F)cc3)c2C1 (stereo not shown) [Ex. 40] | 64.5 | –
30 | CC1CCc2nc(N3CCN(C)CC3)nc(-c3ccc(F)cc3)c2C1 (stereo not shown) [Ex. 41] | 60.8 | –
31 | CCN1CCN(c2nc3c(c(-c4ccc(F)cc4)n2)CC(C)CC3)CC1 (stereo not shown) [Ex. 42] | 71 | –
32 | CC1CCc2nc(N3CCN(CCO)CC3)nc(-c3ccc(F)cc3)c2C1 (stereo not shown) [Ex. 43] | 64.2 | –
33 | O=C(c1ccco1)N1CCN(c2nc3c(c(-c4ccc(F)cc4)n2)CCC3)CC1 [Ex. 45, 2-[4-(2-furoyl)-1-piperazinyl]-4-(4-fluorophenyl)-6,7-dihydro-5H-cyclopentapyrimidine] | 60.4 | –
34 | O=C(CCCN1CCN(c2nc3c(c(-c4ccc(F)cc4)n2)CCC3)CC1)c1ccc(F)cc1 [Ex. 46, 2-[4-[3-(4-fluorobenzoyl)propyl]-1-piperazinyl]-4-(4-fluorophenyl)-6,7-dihydro-5H-cyclopentapyrimidine] | 100 | –
